Reference: US20060217418A1, “Substituted alkyl amido piperidines” (priority 2001, published 2006)

Each compound was assayed against T1, rat MCH1 receptor (Rattus norvegicus, UniProt P97639) (assay: Radioligand binding assay at cloned rat MCH1 receptor ([3H]Compound A)). Details: cloned rat MCH1, Peakr293 cell membranes, 0.08 nM [3H]Compound A, 25° C., 90 minutes; read-out: Ki(MCH-1).
T1 construct: operatively linked to DNA encoding the rat MCH1 receptor so as to permit expression thereof; expressed in transfected cells; host or cells: Human embryonic kidney Peak rapid 293 (Peakr293) cells, transient calcium phosphate transfection, membranes
T1 sequence (P97639 whole entry): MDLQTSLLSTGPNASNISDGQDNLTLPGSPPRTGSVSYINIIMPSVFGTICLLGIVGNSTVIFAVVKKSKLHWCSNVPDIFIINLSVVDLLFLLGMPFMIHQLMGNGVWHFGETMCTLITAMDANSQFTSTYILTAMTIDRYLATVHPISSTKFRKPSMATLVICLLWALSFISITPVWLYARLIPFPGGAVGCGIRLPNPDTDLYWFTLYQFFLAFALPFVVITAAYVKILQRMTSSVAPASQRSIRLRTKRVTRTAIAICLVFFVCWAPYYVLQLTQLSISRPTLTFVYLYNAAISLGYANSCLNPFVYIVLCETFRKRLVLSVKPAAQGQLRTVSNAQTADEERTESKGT

Ki [µM]	SMILES
0.0062	CC(C)OC(=O)Nc1cccc(C2CCN(CCCNC(=O)C(c3ccc(F)cc3)c3ccc(F)cc3)CC2)c1 [Example 146, ISOPROPYL 3-[1-(3-{[BIS(4-FLUOROPHENYL)ACETYL]AMINO}PROPYL)-4-PIPERIDINYL]PHENYLCARBAMATE]
0.0633	CCC(=O)Nc1cccc(C2CCN(CCCNC(=O)C3(c4ccc(F)cc4)CCCCC3)CC2)c1 [Example 61, 1-(4-FLUOROPHENYL)-N-(3-{4-[3-(PROPIONYLAMINO)PHENYL]-1-PIPERIDINYL} PROPYL)CYCLOHEXANECARBOXAMIDE]
0.0399	CCCC(=O)Nc1cccc(C2CCN(CCCNC(=O)C3(c4ccc(Cl)cc4)CC3)CC2)c1 [Example 69, N-(3-{4-[3-(butyrylamino)phenyl]-1-piperidinyl}propyl)-1-(4-chlorophenyl)cyclopropane carboxamide]
0.0139	O=C(Nc1cccc(C2CCN(CCCNC(=O)C3(c4ccc(Cl)cc4)CC3)CC2)c1)C1CC1 [Example 118]
0.02	CC[C@H](C(=O)NCCCN1CCC(c2cc(NC(=O)C(C)C)ccc2C)CC1)c1ccccc1 [Example 163, (2S)-N-(3-{4-[5-(isobutyrylamino)-2-methylphenyl]-1-piperidinyl}propyl)-2-phenylbutanamide]
0.0091	CC(C)C(=O)Nc1c(F)cc(F)c(C2CCN(CCCNC(=O)C(c3ccccc3)c3ccccc3)CC2)c1F [Example 171, N-[3-(1-{3-[(diphenylacetyl)amino]propyl}-4-piperidinyl)-2,4,6-trifluorophenyl]-2-methylpropanamide]
0.101	CCCC(=O)Nc1cc(C2CCN(CCCNC(=O)C3(c4ccc(F)cc4)CCCC3)CC2)ccc1F [Example 107]
0.0307	CCCC(=O)Nc1cccc(C2CCN(CCCNC(=O)C(C)c3ccc(Cl)cc3)CC2)c1 (centres unmarked) [Example 77, N-{3-[1-(3-{[2-(4-CHLOROPHENYL)PROPANOYL]AMINO}PROPYL)-4-PIPERIDINYL] PHENYL}BUTANAMIDE]
0.0169	CC(C)C(=O)Nc1cccc(C2CCN(CCCNC(=O)C3(c4ccc(F)cc4)CCCCC3)CC2)n1 [Example 68, 1-(4-FLUOROPHENYL)-N-(3-{4-[6-(ISOBUTYRYLAMINO)-2-PYRIDINYL]-1-PIPERIDINYL} PROPYL)CYCLOHEXANECARBOXAMIDE]
0.0126	CC(C)C(=O)Nc1cccc(C2CCN(CCCNC(=O)C3(c4ccc(Cl)cc4)CCCC3)CC2)n1 [Example 84]
0.0079	CC(C)C(=O)Nc1cccc(C2CCN(CCCNC(=O)C3(c4ccc(F)cc4)CCCCC3)CC2)c1 [Example 40, 1-(4-FLUOROPHENYL)-N-(3-{4-[3-(ISOBUTYRYLAMINO)PHENYL]-1-PIPERIDINYL} PROPYL)CYCLOHEXANECARBOXAMIDE]
0.124	CC(C)C(=O)Nc1cccc(C2CCN(CCCNC(=O)C(F)(F)c3ccccc3)CC2)c1 [Example 125, N-{3-[1-(3{[DIFLUORO(PHENYL)ACETYL]AMINO}PROPYL)-4-PIPERIDINYL] PHENYL}2-METHYLPROPANAMIDE]
0.023	CC(C)C(=O)Nc1cccc(C2CCN(CCCNC(=O)C(C)(C)c3ccc(Cl)cc3)CC2)n1 [Example 88]
0.0052	Cc1ccc(NC(=O)C(C)C)cc1C1CCN(CCCNC(=O)C2(c3ccc(F)cc3Cl)CCCC2)CC1 [Example 135, 1-(2-CHLORO-4-FLUOROPHENYL)-N-(3-{4-[5-(ISOBUTYRYLAMINO)-2-METHYL PHENYL]-1-PIPERIDINYL}PROPYL)CYCLOPENTANECARBOXAMIDE]
0.0186	O=C(Nc1cccc(C2CCN(CCCNC(=O)C3(c4ccc(F)cc4Cl)CCCC3)CC2)c1)C1CC1 [Example 119, 1-(2-CHLORO-4-FLUOROPHENYL)-N-[3-(4-{3-[(CYCLOPROPYLCARBONYL)AMINO] PHENYL}-1-PIPERIDINYL)PROPYL]CYCLOPENTANECARBOXAMIDE]
0.0118	CC(C)C(=O)Nc1cc(C2CCN(CCCNC(=O)C(C)(c3ccccc3)c3ccccc3)CC2)ccc1F [Example 51]
0.0343	CC(=O)Nc1cccc(C2CCN(CCCNC(=O)C3(c4ccc(Cl)cc4)CCC3)CC2)c1 [Example 74, N-(3-{4-[3-(ACETYLAMINO)PHENYL]-1-PIPERIDINYL}PROPYL)-1-(4-CHLOROPHENYL) CYCLOBUTANECARBOXAMIDE]
0.0244	CC(C)C(=O)Nc1cccc(C2CCN(CCCNC(=O)C3(c4ccc(F)cc4)CCCC3)CC2)n1 [Example 66, 1-(4-FLUOROPHENYL)-N-(3-{4-[6-(ISOBUTYRYLAMINO)-2-pyridinyl]-piperidinyl}propyl) cyclopentanecarboxamide]
0.0062	CC(C)OC(=O)Nc1cccc(C2CCN(CCCNC(=O)C(c3ccc(Cl)cc3)c3ccc(Cl)cc3)CC2)c1 [Example 143, Isopropyl 3-[1-(3-{[bis(4-chlorophenyl)acetyl]amino}propyl)-4-piperidinyl]phenylcarbamate]
0.115	Nc1cccc(C2CCN(CCCNC(=O)C(c3ccccc3)c3ccccc3)CC2)c1 [Example 152]
1.04	CCSC(C(=O)NCCCN1CCC(c2cccc(NC(=O)C(C)C)c2)CC1)(c1ccccc1)c1ccccc1 [Example 16, N-{3-[1-(3{[(ETHYLSULFANYL)(DIPHENYL)ACETYL]AMINO}PROPYL)-4-PIPERIDINYL] PHENYL}-2-METHYLPROPANAMIDE]
0.0029	CCCC(=O)Nc1cccc(C2CCN(CCCNC(=O)C3(c4ccc(Cl)cc4)CCCCC3)CC2)c1 [Example 99, N-(3-{4-[3-(BUTYRYLAMINO)PHENYL]-1-PIPERIDINYL}PROPYL)-1-(4-CHLOROPHENYL) CYCLOHEXANECARBOXAMIDE]

Ki [µM]	SMILES
0.0445	CC(C)C(=O)Nc1cc(C2CCN(CCCNC(=O)C(C)c3ccc(F)cc3)CC2)ccc1F (centres unmarked) [Example 46]
0.15	CCC(=O)Nc1cccc(C2CCN(CCCNC(=O)C3(c4ccc(Cl)cc4)CC3)CC2)c1 [Example 63, 1-(4-CHLOROPHENYL-N-(3-{4-[3-(PROPIONYLAMINO)PHENYL]-1-PIPERIDINYL} PROPYL)CYCLOPROPANECARBOXAMIDE]
0.0118	CC(C)C(=O)Nc1ccc(F)c(C2CCN(CCCNC(=O)C3(c4ccc(F)cc4Cl)CCCC3)CC2)c1 [Example 137, 1-(2-CHLORO-4-FLUOROPHENYL)-N-(3-{4-[2-FLUORO-5-(ISOBUTYRYLAMINO) PHENYL]-1-PIPERIDINYL}PROPYL)CYCLOPENTANECARBOXAMIDE]
0.0103	CC(C)C(=O)Nc1cccc(C2CCN(CCCNC(=O)C(C)(c3ccccc3)c3ccccc3)CC2)n1 [Example 83]
0.0053	CC(C)C(=O)Nc1cccc(C2CCN(CCCNC(=O)C(C)(c3ccccc3)c3ccccc3)CC2)c1 [Example 30]
0.496	Cc1c(NC(=O)C(C)C)cccc1C1CCN(CCCNC(=O)C(c2ccccc2)c2ccccc2)CC1 [Example 33]
0.003	CCN(CCCN1CCC(c2cccc(NC(=O)C(C)C)c2)CC1)C(=O)C(c1ccccc1)c1ccccc1 [Example 126]
0.0025	CC(C)C(=O)Nc1cncc(C2CCN(CCCNC(=O)C(c3ccc(F)cc3)c3ccc(F)cc3)CC2)c1 [Example 172, N-{5-[1-(3-{[bis(4-fluorophenyl)acetyl]amino}propyl)-4-piperidinyl]-3-pyridinyl}-2-methylpropanamide]
0.0187	Cc1ccc(NC(=O)C(C)C)cc1C1CCN(CCCNC(=O)[C@H](C)c2ccc(Cl)cc2)CC1 [Example 167]
0.0005	CCC(=O)Nc1cccc(C2CCN(CCCNC(=O)C(c3ccc(Cl)cc3)c3ccc(Cl)cc3)CC2)c1 [Example 57, N-{3-[1-(3-{[2,2-BIS(4-CHLOROPHENYL)ACETYL]AMINO}PROPYL)-4-PIPERIDINYL] PHENYL}PROPANAMIDE]
0.0003	CC(=O)Nc1cccc(C2CCN(CCCNC(=O)C(c3ccc(Cl)cc3)c3ccc(Cl)cc3)CC2)c1 [Example 55]
0.0332	CC(C)OC(=O)Nc1cccc(C2CCN(CCCNC(=O)C(c3ccccc3)c3ccccc3)CC2)c1 [Example 144, Isopropyl 3-(1-{3-[(Diphenylacetyl)Amino]Propyl}-4-Piperidinyl) Phenylcarbamate]
0.0004	CC(=O)Nc1cccc(C2CCN(CCCNC(=O)C(c3ccc(F)cc3)c3ccc(F)cc3)CC2)c1 [Example 28, N-(3-{4-[3-(acetylamino)phenyl]-1-piperidinyl}propyl)-2,2-bis(4-fluorophenyl)acetamide]
0.0049	CCCC(=O)Nc1cc(C2CCN(CCCNC(=O)C(c3ccccc3)c3ccccc3)CC2)ccc1F [Example 65]
0.0029	Cc1ccc(NC(=O)C(C)C)cc1C1CCN(CCCNC(=O)C(C)(C)c2ccc(Cl)cc2)CC1 [Example 91]
0.0774	CC(C)OC(=O)Nc1cccc(C2CCN(CCCNC(=O)C(C)(C)c3ccc(Cl)cc3)CC2)c1 [Example 142, Isopropyl 3-[1-(3-{[2-(4-Chlorophenyl)-2-Methylpropanoyl]Amino}Propyl)-4-Piperidinyl]Phenyl carbamate]
0.0191	CC(C)C(=O)Nc1cncc(C2CCN(CCCNC(=O)C(c3ccccc3)c3ccccc3)CC2)c1 [Example 170, N-[5-(1-{3-[(diphenylacetyl)amino]propyl}-4-piperidinyl)-3-pyridinyl]-2-methyl propanamide]
0.0046	Cc1ccc(NC(=O)C(C)C)cc1C1CCN(CCCNC(=O)C2(c3ccc(Cl)cc3)CCCCC2)CC1 [Example 85]
0.0006	Cc1ccc(C(C(=O)NCCCN2CCC(c3cc(NC(=O)C(C)C)ccc3F)CC2)c2ccc(C)cc2)cc1 [Example 132]
0.0032	O=C(Nc1cccc(C2CCN(CCCNC(=O)C3(c4ccc(Cl)cc4)CCCC3)CC2)c1)C1CC1 [Example 112]
0.0012	Cc1ccc(C(C(=O)NCCCN2CCC(c3cccc(NC(=O)C4CC4)c3)CC2)c2ccc(C)cc2)cc1 [Example 111, N-{3-[1-(3-{[2,2-BIS(4-METHYLPHENYL)ACETYL]AMINO}PROPYL)-4-PIPERIDINYL] PHENYL}CYCLOPROPANECARBOXAMIDE]
0.0028	CC(C(=O)NCCCN1CCC(c2cccc(NC(=O)C3CC3)c2)CC1)(c1ccccc1)c1ccccc1 [Example 123, N-[3-(1-{3-[(2,2-DIPHENYLPROPANOYL)AMINO]PROPYL}-4-PIPERIDINYL)PHENYL] CYCLOPROPANECARBOXAMIDE]
